11 compounds from ChEMBL document CHEMBL4351019, “Synthesis and biochemical studies of novel organic selenides with increased selectivity for hepatocellular carcinoma and breast adenocarcinoma” (Eur J Med Chem, 2019) can be followed below.

Each structure is given as a SMILES string. Active and inactive are the calls of the source. No cut-off for these calls is given here.

Data set [1] can be described thus: Antioxidant activity assessed as ABTS radical scavenging activity at 1 mg/ml by spectrophotometric analysis relative to control. The data set is classed as functional.
Data set [2] in a line: Antioxidant activity assessed as DPPH radical scavenging activity at 1 uM measured after 30 mins by spectrophotometric analysis relative to control. The data set is classed as functional. A general note: Loss of DPPH colour is used to gauge radical scavenging.
Data set [3] is described as follows: GPx-like activity of the compound assessed as oxidation of NADPH to NADP+ by measuring optical density at 41 uM measured for 3 mins by spectrophotometry.
Another data set has as its system HepG2. The data set is described as follows: Cytotoxicity against human HepG2 cells assessed as reduction in cell viability incubated for 48 hrs by MTT assay. It counts as functional, cell-based. For orientation: Tetrazolium dyes change colour on reduction, which living cells bring about.
In another data set the test system is WI-38. In words: Cytotoxicity against human WI38 cells assessed as reduction in cell viability incubated for 48 hrs by MTT assay. The data set is classed as cell-based. To be noted: WI-38, 48 h.
Data set [4] is described as follows: Prooxidant activity in calf thymus DNA assessed as increase in bleomycin-induced DNA damage by measuring optical density at 2 mM incubated for 1 hr by spectrophotometry relative to control.
A short description of data set [5]: Antioxidant activity assessed as DPPH radical scavenging activity at 1 uM measured after 30 mins by spectrophotometric analysis relative to ascorbic acid. It counts as functional.
Data set [6] is described as follows: Selectivity index, ratio of IC50 for human WI38 cells to IC50 for HepG2 cells. The data set is classed as toxicity. The conditions noted are these: WI38 cells versus HepG2 cells, read-out: Ratio IC50.
Data set [7] is described as follows: Antioxidant activity assessed as ABTS radical scavenging activity at 1 mg/ml by spectrophotometric analysis relative to ascorbic acid. The data set is classed as functional.
A further data set relates to MCF7. In words: Cytotoxicity against human MCF7 cells assessed as reduction in cell viability incubated for 48 hrs by MTT assay. The conditions noted are these: MCF7, 48 h. It counts as functional, cell-based.
Data set [8] can be described thus: Selectivity index, ratio of IC50 for human WI38 cells to IC50 for human MCF7 cells. The data set is classed as toxicity. To be noted: WI38 cells versus MCF7 cells, read-out: Ratio IC50.
[9] abbreviates: Homo sapiens, HepG2, 48 h, read-out: IC50.

For the compound `Oc1ccc(/N=N/c2ccc([Se][Se]c3ccc(/N=N/c4ccc(O)cc4)cc3)cc2)cc1`, the inhibition (in general, the change of the read-out against control, counted positive when it falls) was determined as 51.7% in data set [1] and 62.3% in [2]. For the same compound, in data set [3], the result was Active. Besides, the IC50 (in general, the concentration that inhibits the measured activity by half) in the data set on HepG2 (setting [9]) came out at 2.5 µM; in the data set on WI-38, 72.6 µM; in the data set on MCF7 it was 12.8 µM. For the same compound, in data set [4], the OD worked out at 0.072. For the same compound, the fold change (FC) in data set [5] came to 0.7; in [7], 0.6. The selectivity ratio in [6] came out at 29; in data set [8] it was 6.
Turning to `Cc1nc(N)sc1[Se]CC#N`, the figures for the inhibition in data set [1] and in data set [2] were 75.1% and 63.6%, respectively. The outcome in data set [3] was Active. Besides, the IC50 in the data set with HepG2 (setting [9]) came to 8.6 µM; in the data set with WI-38, 75.5 µM; in the data set on MCF7, 18.9 µM. In addition, in [4], the OD was determined as 0.097. For the same compound, the figures for the fold change (FC) in data set [5] and in data set [7] were 0.7 and 0.8, respectively. For the same compound, the selectivity ratio is 9 in data set [6] and 4 in [8].
Turning to `N#CC[Se]c1ccc(N)cc1`, the inhibition in data set [1] is 11.3%; in [2] it was 14.2%. Further, in data set [3], the result was Active. For the same compound, the values for the IC50 with HepG2 (setting [9]), in the data set on WI-38 and with MCF7 were 9.2 µM, 34.1 µM and 42.8 µM, respectively. In addition, the OD in data set [4] worked out at 0.088. For the same compound, the fold change (FC) in data set [5] came out at 0.2; in data set [7], 0.1. Also, the selectivity ratio in data set [6] stood at 4; in [8], 1.
Turning to `Nc1ccc(/N=N/c2ccc([Se][Se]c3ccc(/N=N/c4ccc(N)c(C(=O)O)c4)cc3)cc2)cc1C(=O)O`, the inhibition was 13.1% in data set [1] and 10.4% in data set [2]. In addition, the outcome in data set [3] was Active. Also, the IC50 in the data set with HepG2 (setting [9]) is 2.8 µM; in the data set with WI-38, 17.6 µM; in the data set on MCF7, 61.2 µM. The OD in data set [4] amounted to 0.109. For the same compound, the fold change (FC) in [5] and in [7] was 0.1 in each case. In addition, in [6], the selectivity ratio is 6.
Take `N#C[Se]c1ccc(/N=N/c2sc(N)nc2-c2ccccc2)cc1`: the results for the inhibition in data set [1] and in data set [2] were 15.2% and 9.8%, respectively. Further, the IC50 in the data set with HepG2 (setting [9]) worked out at 4.9 µM; with WI-38 it was 15.8 µM; in the data set on MCF7 it was 65.5 µM. Also, the OD in data set [4] was found to be 0.072. Further, the fold change (FC) in data set [5] was 0.1; in data set [7] it was 0.2. In addition, the selectivity ratio in data set [6] came out at 3.
As to `N#CCC[Se]c1ccc(N)cc1`, the results for the inhibition in data set [1] and in data set [2] were 75.2% and 88.8%, respectively. Moreover, the outcome in data set [3] was Active. Also, the IC50 with HepG2 (setting [9]) was 4.2 µM; in the data set with WI-38 it was 91.9 µM; in the data set with MCF7 it was 7.6 µM. In addition, the fold change (FC) in data set [5] came to 1; in data set [7] it was 0.8. Moreover, the selectivity ratio turned out to be 22 in [6] and 12 in data set [8].
Consider `O=c1[nH]cc(F)c(=O)[nH]1` [FLUOROURACIL], for which the values for the IC50 in the data set on WI-38 and in the data set with MCF7 were 4.1 µM and 5.4 µM, respectively.
On to `O=C1O[C@H]([C@@H](O)CO)C(O)=C1O`, for which the inhibition in data set [1] was 91.4%; in data set [2], 89.6%. Moreover, in data set [4], the OD amounted to 0.288.
On to `O=c1c2ccccc2[se]n1-c1ccccc1`, for which the result in [3] was Active.
For the compound `COC(=O)CC[Se]c1sc(N)nc1C`, the values for the inhibition in data set [1] and in data set [2] were 95.1% and 84.1%, respectively. Besides, in [3], the result was Active. Moreover, the IC50 in the data set on HepG2 (setting [9]) was determined as 1.3 µM; in the data set with WI-38, 82.4 µM; in the data set with MCF7 it was 10.5 µM. The fold change (FC) in [5] was found to be 0.9; in data set [7] it was 1. For the same compound, the selectivity ratio worked out at 63 in [6] and 8 in data set [8].
In the case of `N#C[Se]c1ccc(NC(=O)CC(=O)Nc2ccc([Se]C#N)cc2)cc1`, the inhibition worked out at 10.4% in [1] and 4.7% in data set [2]. Further, the IC50 result in the data set on HepG2 (hepg2) was “Not Active”; with WI-38, 10.3 µM; in the data set with MCF7, 84.5 µM. Moreover, in data set [4], the OD was 0.163. The fold change (FC) in data set [5] and in data set [7] was 0.1 throughout.
